In patent publication US20140128352A1, “COMPOUNDS AND METHODS FOR MODULATING MITOCHONDRIAL METABOLISM AND REACTIVE OXYGEN SPECIES PRODUCTION” (Buck Institute for Research on Aging, priority 2012, published 2014):
Entries after “also recorded” stand apart in the source; their conditions may differ.

Assays:
site IQ = assay: Retest of IQ ROS production (expanded microplate panel / cuvette); type: biochemical, rat; details: for effect on IQ ROS with subsaturating substrate: subsaturating (0.5 mM) succinate
Experimental: Compounds identified as site-selective hits as well as structural analogs were re-sourced from ChemBridge and dissolved in DMSO as 80 mM stocks. Master Titration Plates were prepared manually by serially diluting 80 mM compound stocks between 0.08 and 80 mM on 96-well microplates. Four compounds were titrated in duplicate on each plate. Additional DMSO controls were interspersed across these plates to serve as local normalization controls during analysis since two-way median polishing was not appropriate. Just prior to use, compounds were diluted 100-fold with standard buffer (10X). The same known inhibitor positive controls were included on each plate as during high-throughput screening.
The five core ROS assays and single ΔΨm assay were carried out as in the initial high-throughput screen. In addition, several assays were included to help validate the specificity of the compounds for a given site of production. All compounds were titrated against separate assays targeting IQ ROS and IIIQo ROS using subsaturating (0.5 mM final) succinate. […] Specifically, ΔΨm was monitored separately with 5 mM succinate (in the presence of 4 μM rotenone) in addition to glutamate and malate as before. The use of different substrates was designed to reveal compounds that disrupt mitochondrial function in a substrate specific manner.
Most frequently, these changes involved the use of different substrates to supply electrons from an alternative entry point in the chain. If a site of ROS production is being targeted selectively by a compound, then in many cases the supply of electrons should not influence the effectiveness of this compound at suppressing ROS production. […] Alternative conditions are listed below: • 1) IQ ROS: 5 mM succinate with 1 mM glutamate • 2) IF ROS: 5 mM malate only as substrate (in the presence of 4 μM rotenone) • 3) IIIQo ROS: 5 mM succinate (in the presence of 3 mM malonate, 4 uM rotenone, and 2.5 μM antimycin A) • 4) IIIQo ROS: 25 mM glycerol phosphate (in the presence of 1 mM malonate, 4 μM rotenone, and 2.5 μM antimycin A) • 5) SDH: 0.5 mM succinate (in the presence of 4 uM rotenone, 2.5 uM antimycin A, and 2 μM myxothiazol) • 6) GPDH: Vary the concentration of glycerol phosphate in the presence or absence of 250 nM free calcium to allosterically activate GPDH (all in the presence of 4 μM rotenone, 2.5 uM antimycin A, 1 mM malonate, and 2 μM myxothiazol) • 7) ΔΨm: Vary the concentration of glycerol phosphate in the presence or absence of 250 nM free calcium to allosterically activate GPDH and in the presence or absence of 80 ng/mL nigericin (all in the presence of 4 μM rotenone)
The fluorescence values in each well were scaled in relation to the intra-plate DMSO and known inhibitor controls as in the high-throughput screen except that median values for local interspersed DMSO wells (3-6 wells) were used rather than just the 8 DMSO wells in columns 1 and 12. This normalization was applied in place of the two-way median polish used during high-throughput screening to minimize row and column effects. […] At this stage, strong candidates were not necessarily excluded from further testing if subtle off-target effects were observed (e.g. loss of specificity or signs of general inhibition at the highest concentrations). Rather, these candidates were often pursued for more detailed mechanistic studies with the expectation that subsequent structure activity analysis would provide insight into which structurally related compounds would provide the optimal specificity for a given site of production.
Candidate compounds that remained site-selective following robotics assisted retesting were subsequently tested for effects on ROS production and ΔΨm with a Varian Cary Eclipse fluorimeter (excitation 550 nm, emission at 590 nm). This experimental format allows kinetic measurements of ROS production and ΔΨm with more accurate temperature control, sample stirring, and background correction. […]

site IF = target: T1, site IF (Rattus norvegicus, UniProt Q5XIH3); assay: Retest of IF ROS production (expanded microplate panel); type: biochemical
T1 construct: freshly isolated muscle mitochondria were assayed; from tissue; host or cells: rat skeletal muscle mitochondria (Wistar, Harlan Laboratories)
Experimental: (§1) Compounds identified as site-selective hits as well as structural analogs were re-sourced from ChemBridge and dissolved in DMSO as 80 mM stocks. Master Titration Plates were prepared manually by serially diluting 80 mM compound stocks between 0.08 and 80 mM on 96-well microplates. Four compounds were titrated in duplicate on each plate. Additional DMSO controls were interspersed across these plates to serve as local normalization controls during analysis since two-way median polishing was not appropriate. Just prior to use, compounds were diluted 100-fold with standard buffer (10X). The same known inhibitor positive controls were included on each plate as during high-throughput screening. The five core ROS assays and single ΔΨm assay were carried out as in the initial high-throughput screen. In addition, several assays were included to help validate the specificity of the compounds for a given site of production. […] The use of different substrates was designed to reveal compounds that disrupt mitochondrial function in a substrate specific manner. […] Most frequently, these changes involved the use of different substrates to supply electrons from an alternative entry point in the chain. If a site of ROS production is being targeted selectively by a compound, then in many cases the supply of electrons should not influence the effectiveness of this compound at suppressing ROS production. […] The fluorescence values in each well were scaled in relation to the intra-plate DMSO and known inhibitor controls as in the high-throughput screen except that median values for local interspersed DMSO wells (3-6 wells) were used rather than just the 8 DMSO wells in columns 1 and 12. This normalization was applied in place of the two-way median polish used during high-throughput screening to minimize row and column effects. […] At this stage, strong candidates were not necessarily excluded from further testing if subtle off-target effects were observed (e.g. loss of specificity or signs of general inhibition at the highest concentrations). Rather, these candidates were often pursued for more detailed mechanistic studies with the expectation that subsequent structure activity analysis would provide insight into which structurally related compounds would provide the optimal specificity for a given site of production.

site IIIQo = target: T2, site IIIQo (Rattus norvegicus, UniProt P00159+P20788); assay: Retest of IIIQo ROS production (expanded microplate panel); type: biochemical
T2 construct: freshly isolated muscle mitochondria were assayed; from tissue; host or cells: rat skeletal muscle mitochondria (Wistar, Harlan Laboratories)
Experimental: as §1

T1 sequence (Q5XIH3 21-464 limits assumed): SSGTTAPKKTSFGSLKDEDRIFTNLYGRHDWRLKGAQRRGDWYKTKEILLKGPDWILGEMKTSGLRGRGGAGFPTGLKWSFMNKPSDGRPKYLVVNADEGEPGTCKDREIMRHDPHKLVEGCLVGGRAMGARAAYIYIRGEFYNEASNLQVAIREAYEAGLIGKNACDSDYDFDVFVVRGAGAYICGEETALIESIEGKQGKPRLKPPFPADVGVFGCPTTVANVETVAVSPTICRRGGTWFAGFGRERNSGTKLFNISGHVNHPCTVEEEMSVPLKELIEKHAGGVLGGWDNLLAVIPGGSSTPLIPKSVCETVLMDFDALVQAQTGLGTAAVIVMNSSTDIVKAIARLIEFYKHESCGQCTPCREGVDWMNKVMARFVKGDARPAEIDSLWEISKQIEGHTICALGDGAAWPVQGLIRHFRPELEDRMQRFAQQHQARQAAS

Structure (SMILES)	effect on IQ ROS with subsaturating substrate (site IQ; retest)	effect on IF ROS and selectivity for site IF (site IF)	effect on IIIQo ROS (site IIIQo)	other results
O=[N+]([O-])c1ccc(Oc2ccc(S(=O)(=O)NC3CCCCC3)cc2)cc1 [Compound 4]	–	–	–	effects on other major sites of ROS production (site IQ; 2.5 uM): without discernible effects on any other major sites within mitochondria
O=C(O)C1CCCCC1C(=O)NC1CCCCC1 (stereo not drawn) [Compound 19]	minimal effects on IQ ROS production driven with subsaturating substrate until 25 μM	selectively lowers ROS production from site IF	unaffected until the highest concentration tested (80 μM)	effect on IQ ROS with saturating substrate (site IQ; retest, saturating substrate): unaffected until the highest concentration tested (80 μM); inhibition at 2.5 µM (site IF; 2.5 μM): 24%
COc1cc(CN(CCN(C)C)Cc2ccccc2)cc(OC)c1 [Compound 31]	stronger off-target effects on IQ ROS when driven by low concentration succinate	improved selectivity toward the IF site in combination with a lowered effect on ΔΨm	–	–
Cc1ccc(C)c(CN(CCCN(C)C)CCCN(C)C)c1 [Compound 32]	–	selectively lowers ROS production from site IF; also recorded: further improved selectivity for IF without compromising ΔΨm	–	–
COc1ccc(Cl)cc1N(Cc1ccccc1)Cc1ccccc1 [Compound 34]	consistently increased IQ ROS but only with subsaturating substrate	–	selectively lowers ROS production from site IIIQo independent of substrate concentration	inhibition at 8 µM (site IIIQo; 8 μM, independent of substrate concentration): 60%
CC1=CC(C)(C)N(Cc2ccc([N+](=O)[O-])cc2)c2ccccc21 [Compound 37]	decreased IQ ROS with low substrate; also recorded: lowers site IQ ROS with subsaturating succinate	–	lowers ROS from site IIIQo independent of substrate concentration	–
O=C(O)CSc1cccc(C(=O)Nc2ccc(Br)cc2)c1 [Compound 47]	–	–	off-target effect on site IIIQo ROS	–
